US8168651B2, “Protein kinase modulators” (Cylene Pharmaceuticals, Inc., priority 2008, dated 2012)

Columns and labels:
Experiment in all cases: Standardized radiometric kinase assays, percentage of activity at 0.5 μM;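 further: Read-out is ³³P-labelled substrate protein phosphorylated by each kinase, captured on filters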
[1] = target: each individual kinase of the panel (Homo sapiens, UniProt P17948); settings: for % Activity: Flt1(h)
[2] = target: each individual kinase of the panel (Homo sapiens, UniProt Q9NYY3); settings: for % Activity: Snk(h)
[3] = target: each individual kinase of the panel (Homo sapiens, UniProt Q9BZL6); settings: for % Activity: PKD2(h)
[4] = target: each individual kinase of the panel (Homo sapiens, UniProt Q15303); settings: for % Activity: ErbB4(h)
[5] = target: each individual kinase of the panel (Homo sapiens, UniProt Q05397); settings: for % Activity: FAK(h)
[6] = target: each individual kinase of the panel (Homo sapiens, UniProt O14757); settings: for % Activity: CHK1(h)
[7] = target: each individual kinase of the panel (Homo sapiens, UniProt O14733); settings: for % Activity: MKK7β(h)
[8] = target: each individual kinase of the panel (Homo sapiens, UniProt Q9P1W9); settings: for % Activity: Pim-2(h)
[9] = target: each individual kinase of the panel (Homo sapiens, UniProt P07333)
[10] = target: each individual kinase of the panel (Homo sapiens, UniProt P31749); settings: for % Activity: PKBα(h)
[11] = target: each individual kinase of the panel (Homo sapiens, UniProt P10721); settings: for % Activity: cKit(h)
[12] = target: each individual kinase of the panel (Homo sapiens, UniProt P43403); settings: for % Activity: ZAP-70(h)
[13] = target: each individual kinase of the panel (Homo sapiens, UniProt O00418); settings: for % Activity: eEF-2K(h)
[14] = target: each individual kinase of the panel (Homo sapiens, UniProt Q9H422); settings: for % Activity: HIPK3(h)
[15] = target: each individual kinase of the panel (Homo sapiens, UniProt P06213); settings: for % Activity: IR(h)
[16] = target: each individual kinase of the panel (Homo sapiens, UniProt P78368); settings: for % Activity: CK1γ2(h)
[17] = target: each individual kinase of the panel (Homo sapiens, UniProt P00533); settings: for % Activity: EGFR(h)
[18] = target: each individual kinase of the panel (Homo sapiens, UniProt P54760); settings: for % Activity: EphB4(h)
[19] = target: each individual kinase of the panel (Homo sapiens, UniProt P00533, T790M); settings: for % Activity: EGFR(T790M)(h)
[20] = target: each individual kinase of the panel (Homo sapiens, UniProt P06241); settings: for % Activity: Fyn(h)
[21] = target: each individual kinase of the panel (Homo sapiens, UniProt P04629); settings: for % Activity: TrkA(h)
[22] = target: each individual kinase of the panel (Homo sapiens, UniProt P08922)
[23] = target: each individual kinase of the panel (Homo sapiens, UniProt P36888); settings: for % Activity: Flt3(h)
[24] = target: each individual kinase of the panel (Homo sapiens, UniProt O14965); settings: for % Activity: Aurora-A(h)
[25] = target: each individual kinase of the panel (Homo sapiens, UniProt P23443); settings: for % Activity: p70S6K(h)
[26] = target: each individual kinase of the panel (Homo sapiens, UniProt O60674); settings: for % Activity: JAK2(h)
[27] = target: each individual kinase of the panel (Homo sapiens, UniProt P17612); settings: for % Activity: PKA(h)
[28] = target: each individual kinase of the panel (Homo sapiens, UniProt O94804); settings: for % Activity: LOK(h)
[29] = target: each individual kinase of the panel (Homo sapiens, UniProt Q15349); settings: Rsk3(h)

each individual kinase of the panel (Homo sapiens, UniProt O00418), sequence (O00418 2-725 limits assumed): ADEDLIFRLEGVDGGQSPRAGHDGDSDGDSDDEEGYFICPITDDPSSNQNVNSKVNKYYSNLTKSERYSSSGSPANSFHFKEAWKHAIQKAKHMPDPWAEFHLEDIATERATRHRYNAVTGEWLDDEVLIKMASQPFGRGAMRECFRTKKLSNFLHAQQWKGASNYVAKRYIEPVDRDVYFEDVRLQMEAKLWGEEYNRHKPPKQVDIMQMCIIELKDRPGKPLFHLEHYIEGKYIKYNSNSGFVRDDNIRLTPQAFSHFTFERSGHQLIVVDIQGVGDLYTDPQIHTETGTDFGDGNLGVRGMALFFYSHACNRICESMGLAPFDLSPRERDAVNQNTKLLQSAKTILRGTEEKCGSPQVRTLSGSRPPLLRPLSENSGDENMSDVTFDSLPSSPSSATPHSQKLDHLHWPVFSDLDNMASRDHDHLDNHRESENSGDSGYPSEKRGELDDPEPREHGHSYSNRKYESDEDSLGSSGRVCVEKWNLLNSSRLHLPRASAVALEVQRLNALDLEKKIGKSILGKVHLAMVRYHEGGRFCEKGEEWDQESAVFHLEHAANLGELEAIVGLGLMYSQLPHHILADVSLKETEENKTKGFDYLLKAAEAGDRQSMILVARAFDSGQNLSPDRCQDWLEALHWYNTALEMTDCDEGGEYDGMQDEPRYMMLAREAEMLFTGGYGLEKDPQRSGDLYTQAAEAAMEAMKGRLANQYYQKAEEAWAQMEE
each individual kinase of the panel (Homo sapiens, UniProt P54760), sequence (P54760 16-987 limits assumed): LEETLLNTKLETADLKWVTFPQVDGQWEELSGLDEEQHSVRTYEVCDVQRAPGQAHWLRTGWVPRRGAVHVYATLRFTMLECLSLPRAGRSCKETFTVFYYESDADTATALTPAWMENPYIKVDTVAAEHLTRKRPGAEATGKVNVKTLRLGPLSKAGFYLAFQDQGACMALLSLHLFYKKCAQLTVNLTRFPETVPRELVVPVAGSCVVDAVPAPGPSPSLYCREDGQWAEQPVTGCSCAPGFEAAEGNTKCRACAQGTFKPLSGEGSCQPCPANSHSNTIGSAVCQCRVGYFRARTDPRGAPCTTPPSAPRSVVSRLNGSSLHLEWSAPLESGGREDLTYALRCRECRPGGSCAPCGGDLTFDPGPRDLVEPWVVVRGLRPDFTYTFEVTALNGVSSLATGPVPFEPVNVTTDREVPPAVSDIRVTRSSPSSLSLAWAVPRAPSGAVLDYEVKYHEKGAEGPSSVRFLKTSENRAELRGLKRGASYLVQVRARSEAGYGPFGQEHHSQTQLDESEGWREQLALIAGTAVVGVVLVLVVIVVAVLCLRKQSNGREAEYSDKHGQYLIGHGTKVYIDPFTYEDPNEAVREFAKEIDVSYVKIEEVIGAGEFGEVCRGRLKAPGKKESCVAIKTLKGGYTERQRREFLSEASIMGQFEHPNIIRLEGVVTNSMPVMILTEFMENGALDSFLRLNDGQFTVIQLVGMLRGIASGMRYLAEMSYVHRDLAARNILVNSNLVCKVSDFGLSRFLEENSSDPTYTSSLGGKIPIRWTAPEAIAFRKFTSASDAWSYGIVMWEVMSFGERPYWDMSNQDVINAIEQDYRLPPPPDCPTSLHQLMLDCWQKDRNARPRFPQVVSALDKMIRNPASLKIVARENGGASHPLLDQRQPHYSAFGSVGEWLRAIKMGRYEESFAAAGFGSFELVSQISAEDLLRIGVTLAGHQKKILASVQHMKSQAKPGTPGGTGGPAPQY
each individual kinase of the panel (Homo sapiens, UniProt P07333), sequence (P07333 20-972 limits assumed): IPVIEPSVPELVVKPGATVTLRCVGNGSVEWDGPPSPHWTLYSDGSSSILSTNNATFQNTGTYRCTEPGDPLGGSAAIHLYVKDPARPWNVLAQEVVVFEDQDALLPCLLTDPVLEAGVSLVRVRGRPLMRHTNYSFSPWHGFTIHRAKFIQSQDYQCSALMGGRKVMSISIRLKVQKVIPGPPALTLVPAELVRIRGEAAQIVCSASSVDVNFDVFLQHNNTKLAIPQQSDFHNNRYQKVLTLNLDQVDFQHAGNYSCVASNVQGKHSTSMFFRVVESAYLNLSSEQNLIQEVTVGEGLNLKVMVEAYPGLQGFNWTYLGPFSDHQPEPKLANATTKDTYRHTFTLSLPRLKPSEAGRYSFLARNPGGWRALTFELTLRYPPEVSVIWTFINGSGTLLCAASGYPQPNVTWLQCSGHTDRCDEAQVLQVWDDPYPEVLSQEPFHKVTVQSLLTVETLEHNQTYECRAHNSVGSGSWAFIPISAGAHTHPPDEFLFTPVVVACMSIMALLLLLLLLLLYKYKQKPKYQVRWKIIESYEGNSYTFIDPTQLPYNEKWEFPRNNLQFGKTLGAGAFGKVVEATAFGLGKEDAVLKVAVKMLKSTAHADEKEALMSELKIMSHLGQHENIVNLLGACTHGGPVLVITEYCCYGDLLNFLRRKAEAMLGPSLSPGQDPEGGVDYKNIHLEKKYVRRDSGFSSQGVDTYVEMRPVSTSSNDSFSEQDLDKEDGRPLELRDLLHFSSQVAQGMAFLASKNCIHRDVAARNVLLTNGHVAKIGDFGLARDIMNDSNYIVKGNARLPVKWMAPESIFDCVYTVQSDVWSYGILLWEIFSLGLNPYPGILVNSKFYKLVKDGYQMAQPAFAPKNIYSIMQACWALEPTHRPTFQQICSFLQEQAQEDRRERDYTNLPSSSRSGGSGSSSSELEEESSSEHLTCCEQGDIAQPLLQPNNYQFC
each individual kinase of the panel (Homo sapiens, UniProt P10721), sequence (P10721 26-976 limits assumed): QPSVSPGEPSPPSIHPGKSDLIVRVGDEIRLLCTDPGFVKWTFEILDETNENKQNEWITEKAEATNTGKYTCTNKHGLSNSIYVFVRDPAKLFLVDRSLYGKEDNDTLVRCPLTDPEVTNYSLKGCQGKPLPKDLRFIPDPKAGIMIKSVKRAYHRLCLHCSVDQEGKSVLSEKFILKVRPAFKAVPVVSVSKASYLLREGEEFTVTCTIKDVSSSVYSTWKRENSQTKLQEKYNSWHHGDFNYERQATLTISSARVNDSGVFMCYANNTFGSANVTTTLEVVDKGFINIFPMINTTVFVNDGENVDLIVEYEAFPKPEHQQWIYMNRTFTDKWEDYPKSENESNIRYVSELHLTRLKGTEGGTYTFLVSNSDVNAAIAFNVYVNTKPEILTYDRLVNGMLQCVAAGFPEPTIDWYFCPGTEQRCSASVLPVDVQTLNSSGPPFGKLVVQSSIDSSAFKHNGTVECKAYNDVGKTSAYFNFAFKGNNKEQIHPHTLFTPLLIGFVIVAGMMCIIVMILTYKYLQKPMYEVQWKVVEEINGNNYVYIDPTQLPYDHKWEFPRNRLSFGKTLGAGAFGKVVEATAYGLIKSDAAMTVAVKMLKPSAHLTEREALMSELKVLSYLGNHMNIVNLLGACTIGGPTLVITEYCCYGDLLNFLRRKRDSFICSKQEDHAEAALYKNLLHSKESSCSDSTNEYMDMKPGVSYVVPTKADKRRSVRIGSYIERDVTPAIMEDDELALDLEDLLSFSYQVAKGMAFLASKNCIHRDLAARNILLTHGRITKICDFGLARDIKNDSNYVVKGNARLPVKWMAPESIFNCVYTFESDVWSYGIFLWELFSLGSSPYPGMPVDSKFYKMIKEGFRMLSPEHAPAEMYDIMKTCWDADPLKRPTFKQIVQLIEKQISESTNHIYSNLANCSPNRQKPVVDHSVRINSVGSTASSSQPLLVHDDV
each individual kinase of the panel (Homo sapiens, UniProt Q15303), sequence (Q15303 26-1308 limits assumed): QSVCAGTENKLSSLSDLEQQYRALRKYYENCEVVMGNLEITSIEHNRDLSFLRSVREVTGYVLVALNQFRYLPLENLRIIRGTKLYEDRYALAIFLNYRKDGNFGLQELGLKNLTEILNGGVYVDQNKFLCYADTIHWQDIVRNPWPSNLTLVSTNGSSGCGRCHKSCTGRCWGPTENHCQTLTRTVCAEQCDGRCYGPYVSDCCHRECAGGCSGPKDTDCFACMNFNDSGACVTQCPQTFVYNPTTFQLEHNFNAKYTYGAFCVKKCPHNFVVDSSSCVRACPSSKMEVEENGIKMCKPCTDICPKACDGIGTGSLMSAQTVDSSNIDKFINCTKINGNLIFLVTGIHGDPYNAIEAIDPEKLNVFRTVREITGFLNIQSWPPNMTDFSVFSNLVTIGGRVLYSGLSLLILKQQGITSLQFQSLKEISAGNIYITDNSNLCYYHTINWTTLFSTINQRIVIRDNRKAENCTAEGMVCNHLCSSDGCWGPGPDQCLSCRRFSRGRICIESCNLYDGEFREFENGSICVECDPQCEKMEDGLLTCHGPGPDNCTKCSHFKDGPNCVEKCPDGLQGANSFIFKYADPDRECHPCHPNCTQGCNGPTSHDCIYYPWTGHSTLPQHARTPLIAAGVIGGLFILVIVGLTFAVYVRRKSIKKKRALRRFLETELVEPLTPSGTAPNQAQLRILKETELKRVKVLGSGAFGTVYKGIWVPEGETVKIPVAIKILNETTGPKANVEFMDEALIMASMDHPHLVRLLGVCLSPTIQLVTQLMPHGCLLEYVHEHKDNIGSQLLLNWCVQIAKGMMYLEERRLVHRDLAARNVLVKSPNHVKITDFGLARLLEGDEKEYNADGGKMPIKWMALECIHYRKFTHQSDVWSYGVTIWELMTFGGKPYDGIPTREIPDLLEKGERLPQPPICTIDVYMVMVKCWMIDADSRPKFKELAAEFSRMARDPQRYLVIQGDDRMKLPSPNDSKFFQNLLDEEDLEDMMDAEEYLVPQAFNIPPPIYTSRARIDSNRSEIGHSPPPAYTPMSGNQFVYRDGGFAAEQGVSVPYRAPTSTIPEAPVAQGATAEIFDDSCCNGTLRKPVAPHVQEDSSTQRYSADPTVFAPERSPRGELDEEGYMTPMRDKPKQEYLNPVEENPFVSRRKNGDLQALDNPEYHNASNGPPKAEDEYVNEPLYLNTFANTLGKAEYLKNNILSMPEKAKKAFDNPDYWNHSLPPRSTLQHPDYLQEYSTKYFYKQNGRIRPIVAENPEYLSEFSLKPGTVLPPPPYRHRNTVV

For `C#Cc1cccc(Nc2nc3cc(C(=O)O)ccc3c3cncnc23)c1` [drawing 1135], the “FLT1 percentage of activity” value [1] was 5%, the “PLK2 percentage of activity” value [2] was −17% and the “PRKd_nM2 percentage of activity” value [3] was −7%. For the same compound, the “ERBB4 percentage of activity” value [4] was −26%, the “FAK percentage of activity” value [5] was 3% and the “CHK1 percentage of activity” value [6] was 1%. The “MAP2K7 beta percentage of activity” value [7] was −33%, the “PIM2 percentage of activity” value [8] was 25% and the “CSF1R percentage of activity” value [9] was −74%. For the same compound, the “AKT1 percentage of activity” value [10] was −4%, the “cKit(h) percentage of activity” value [11] was −14% and the “ZAP70 percentage of activity” value [12] was −18%. The “eEF−2K(h) percentage of activity” value [13] was −6%, the “HIPK3 percentage of activity” value [14] was 90% and the “INSR percentage of activity” value [15] was −5%. For the same compound, the “CK1 gamma 2 percentage of activity” value [16] was −7%, the “EGFR percentage of activity” value [17] was −23% and the “EPHB4 percentage of activity” value [18] was −44%. For the same compound, the “EGFR(T790M) percentage of activity” value [19] was 8%, the “FYN percentage of activity” value [20] was −14% and the “TRKA percentage of activity” value [21] was 10%. For the same compound, the “ROS percentage of activity” value [22] was −10%, the “FLT3 percentage of activity” value [23] was 58% and the “AURKA percentage of activity” value [24] was 6%. The “p70S6K percentage of activity” value [25] was 20% and the “JAK2 percentage of activity” value [26] was 1%.
With `NC(=O)c1ccc2c(c1)nc(Nc1cccc(Cl)c1)c1ccncc12` [drawing 1138] the “FLT1 percentage of activity” value [1] was 19%, the “PLK2 percentage of activity” value [2] was 9% and the “PRKd_nM2 percentage of activity” value [3] was 25%. For the same compound, the “ERBB4 percentage of activity” value [4] was 33%, the “FAK percentage of activity” value [5] was 4% and the “CHK1 percentage of activity” value [6] was −1%. The “MAP2K7 beta percentage of activity” value [7] was 12%, the “CSF1R percentage of activity” value [9] was 52% and the “AKT1 percentage of activity” value [10] was 7%. The “cKit(h) percentage of activity” value [11] was −10%, the “ZAP70 percentage of activity” value [12] was −2% and the “eEF−2K(h) percentage of activity” value [13] was −3%. For the same compound, the “HIPK3 percentage of activity” value [14] was 57%, the “INSR percentage of activity” value [15] was 0% and the “CK1 gamma 2 percentage of activity” value [16] was −5%. For the same compound, the “EGFR percentage of activity” value [17] was 15%, the “EPHB4 percentage of activity” value [18] was −16% and the “EGFR(T790M) percentage of activity” value [19] was 43%. The “PKA percentage of activity” value [27] was −1%, the “FYN percentage of activity” value [20] was 32% and the “TRKA percentage of activity” value [21] was 62%. For the same compound, the “ROS percentage of activity” value [22] was −3%, the “FLT3 percentage of activity” value [23] was 100% and the “LOK percentage of activity” value [28] was 56%. For the same compound, the “AURKA percentage of activity” value [24] was 11%, the “p70S6K percentage of activity” value [25] was 8% and the “JAK2 percentage of activity” value [26] was −4%.
With `NC(=O)c1cccc2c1nc(Nc1cccc(Cl)c1)c1ccncc12` [B] the “% Activity” value [1] was 66%, the “% Activity” value [2] was 82% and the “% Activity” value [3] was 86%. For the same compound, the “% Activity” value [4] was 77%, the “% Activity” value [5] was 106% and the “% Activity” value [6] was 91%. The “% Activity” value [7] was 75%, the “% Activity” value [8] was 46% and the “% Activity” value ([9]; Fms(h)) was 42%. For the same compound, the “% Activity” value [29] was 40%, the “% Activity” value [10] was 90% and the “% Activity” value [11] was 88%. For the same compound, the “% Activity” value [12] was 106%, the “% Activity” value [13] was 93% and the “% Activity” value [14] was −1%. The “% Activity” value [15] was 95%, the “% Activity” value [16] was 63% and the “% Activity” value [17] was 101%. The “% Activity” value [18] was 105%, the “% Activity” value [19] was 76% and the “% Activity” value [27] was 100%. For the same compound, the “% Activity” value [20] was 49%, the “% Activity” value [21] was 23% and the “% Activity” value [23] was 7%. For the same compound, the “% Activity” value [28] was 87%, the “% Activity” value [24] was 77% and the “% Activity” value [25] was 87%. For the same compound, the “% Activity” value [26] was 55%.
`Clc1ccccc1Nc1nc2c(-c3nnc[nH]3)cccc2c2cnccc12` [A] was tested, and the “% Activity” value [1] was 62%, the “% Activity” value [2] was 79% and the “% Activity” value [3] was 86%. The “% Activity” value [4] was 77%, the “% Activity” value [5] was 30% and the “% Activity” value [6] was 108%. The “% Activity” value [7] was 81%, the “% Activity” value [8] was 2% and the “% Activity” value [29] was 7%. The “% Activity” value [10] was 98%, the “% Activity” value [11] was 89% and the “% Activity” value [12] was 97%. For the same compound, the “% Activity” value [13] was 111%, the “% Activity” value [14] was 2% and the “% Activity” value [15] was 112%. For the same compound, the “% Activity” value [16] was 17%, the “% Activity” value [17] was 111% and the “% Activity” value [18] was 87%. For the same compound, the “% Activity” value [19] was 53%, the “% Activity” value [27] was 97% and the “% Activity” value [20] was 49%. For the same compound, the “% Activity” value [21] was 6%, the “% Activity” value ([22]; Ros(h)) was 90% and the “% Activity” value [23] was 5%. The “% Activity” value [28] was 63%, the “% Activity” value [24] was 43% and the “% Activity” value [25] was 77%. The “% Activity” value [26] was 39%.
